Source: patent publication US8268848B2, “Cyclopropane compound” (Eisai R&D Management Co., Ltd., priority 2010, dated 2012)
Read-outs that look alike come from different tables or passages of the source.

Experiments:
OX1 = biological target: T1, OX1 (Homo sapiens, UniProt O43613); assay: Measurement of orexin receptor-binding ability ([125I]-OX-A, cell membranes, OX1); set-up: expressed in transfected cells; host or cells: CHO cells (membrane preparation)
T1 sequence (O43613 1-425): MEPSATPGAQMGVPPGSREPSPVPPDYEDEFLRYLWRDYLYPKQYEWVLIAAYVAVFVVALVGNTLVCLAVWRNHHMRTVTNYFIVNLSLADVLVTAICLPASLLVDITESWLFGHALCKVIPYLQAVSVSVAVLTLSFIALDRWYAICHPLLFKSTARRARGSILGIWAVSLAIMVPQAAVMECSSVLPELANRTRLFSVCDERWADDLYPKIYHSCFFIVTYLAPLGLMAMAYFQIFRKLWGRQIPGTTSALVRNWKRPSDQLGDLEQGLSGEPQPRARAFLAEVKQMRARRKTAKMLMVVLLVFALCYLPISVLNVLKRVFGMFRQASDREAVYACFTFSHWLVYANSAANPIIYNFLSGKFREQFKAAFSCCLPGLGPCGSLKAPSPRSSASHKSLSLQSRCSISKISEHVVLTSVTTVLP

OX2 = biological target: T2, OX2 (Homo sapiens, UniProt O43614); assay: Measurement of orexin receptor-binding ability ([125I]-OX-A, cell membranes, OX2); set-up: expressed in transfected cells; host or cells: CHO cells (membrane preparation); details: membranes of recombinant CHO cells expressing OX2, 0.2 nM [125I]-OX-A
T2 sequence (O43614 1-444): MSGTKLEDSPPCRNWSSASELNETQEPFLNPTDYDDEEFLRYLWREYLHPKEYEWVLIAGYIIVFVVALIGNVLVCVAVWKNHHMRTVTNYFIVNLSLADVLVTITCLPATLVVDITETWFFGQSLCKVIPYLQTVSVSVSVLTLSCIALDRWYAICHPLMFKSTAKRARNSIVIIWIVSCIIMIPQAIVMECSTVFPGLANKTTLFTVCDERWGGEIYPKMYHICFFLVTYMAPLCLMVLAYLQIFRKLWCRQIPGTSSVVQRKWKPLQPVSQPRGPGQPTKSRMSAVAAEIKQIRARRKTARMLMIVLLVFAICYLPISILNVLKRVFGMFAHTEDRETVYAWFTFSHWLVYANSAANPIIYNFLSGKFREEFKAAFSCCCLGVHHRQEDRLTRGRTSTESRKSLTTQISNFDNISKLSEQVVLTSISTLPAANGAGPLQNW

[1] = membranes of recombinant CHO cells expressing OX1, 0.2 nM [125I]-OX-A, read-out: OX1 (IC50)

Structure (SMILES) | IC50 (OX1; [1]) | IC50 (OX2; read-out: OX2 (IC50)) | IC50 (OX1) | IC50 (OX2; OX2 (IC50) nM)
Cc1ncc(OC[C@@]2(c3ccc(F)c(F)c3)C[C@H]2C(=O)Nc2ccc(F)cc2F)c(C)n1 [Example 171] | 0.043 µM | 11 nM | – | –
Cc1ncc(OCC2(c3ccc(Cl)cc3)CC2C(=O)Nc2cccnc2)c(C)n1 (stereo not shown) [Example 160] | 0.389 µM | 28 nM | – | –
Cc1ccc(NC(=O)[C@@H]2C[C@@]2(COc2cnc(C)nc2C)c2cccc(F)c2)nc1 [Example 278] | – | – | 0.076 µM | 10 nM
COc1cc(F)cc([C@]2(COc3cnc(C)nc3C)C[C@H]2C(=O)Nc2ccc(F)cn2)c1 [Example 254] | – | – | 0.109 µM | 11 nM
COCc1nc(C)ncc1OC[C@@]1(c2cc(F)cc(F)c2)C[C@H]1C(=O)Nc1ccc(F)c(F)c1 [Example 221, (1R,2S)-N-(3,4-difluorophenyl)-2-(3,5-difluorophenyl)-2-{[(4-methoxymethyl-2-methylpyrimidin-5-yl)oxy]methyl}cyclopropanecarboxamide] | < 0.002 µM | 3 nM | – | –
COc1cccc(NC(=O)[C@@H]2C[C@@]2(COc2cnc(C)nc2C)c2ccccc2)n1 [Example 11] | 0.279 µM | 53 nM | – | –
Cc1ncc(OC[C@@]2(c3cccc(F)c3)C[C@H]2C(=O)Nc2cnc(F)c(C)c2)c(C)n1 [Example 91] | – | – | 0.215 µM | 22 nM
Cc1ncc(OC[C@@]2(c3ccccc3)C[C@H]2C(=O)Nc2ccc(F)c(Cl)c2)c(C)n1 [Example 32, (1R,2S)-N-(3-chloro-4-fluorophenyl)-2-{[(2,4-dimethylpyrimidin-5-yl)oxy]methyl}-2-phenylcyclopropanecarboxamide] | 0.015 µM | 3.5 nM | – | –
Cc1ncc(OC[C@@]2(c3cccc(F)c3)C[C@H]2C(=O)Nc2ccc(F)c(F)c2)c(C)n1 [Example 84, (1R,2S)-N-(3,4-difluorophenyl)-2-{[(2,4-dimethylpyrimidin-5-yl)oxy]methyl}-2-(3-fluorophenyl)cyclopropanecarboxamide] | – | – | 0.006 µM | 3 nM
Cc1ncc(OC[C@@]2(c3cc(F)cc(F)c3)C[C@H]2C(=O)Nc2ccc(C#N)cn2)c(C)n1 [Example 137, (1R,2S)-N-(5-cyanopyridin-2-yl)-2-(3,5-difluorophenyl)-2-{[(2,4-dimethylpyrimidin-5-yl)oxy]methyl}cyclopropanecarboxamide] | – | – | 0.097 µM | 4 nM
CCc1nc(C)ncc1OC[C@@]1(c2ccccc2)C[C@H]1C(=O)Nc1cc(C)c(F)cn1 [Example 122] | < 0.02 µM | 7 nM | – | –
Cc1ncc(OC[C@@]2(c3cccc(F)c3)C[C@H]2c2nc3ncccc3c(=O)[nH]2)c(C)n1 [Example 312] | 0.136 µM | 62 nM | – | –
Cc1nc(CO)ncc1OC[C@@]1(c2cccc(F)c2)C[C@H]1C(=O)Nc1ccc(F)cn1 [Example 323, (1R,2S)-2-(3-fluorophenyl)-N-(5-fluoropyridin-2-yl)-2-{[(2-hydroxymethyl-4-methylpyrimidin-5-yl)oxy]methyl}cyclopropanecarboxamide] | – | – | 0.0326 µM | 2.6 nM
Cc1ncc(OC[C@@]2(c3ccccc3)C[C@H]2C(=O)Nc2cc(Cl)cc(C#N)c2)c(C)n1 [Example 35] | 0.558 µM | 43 nM | – | –
Cc1ncc(OCC2(c3ccc(Cl)cc3)CC2C(=O)Nc2ccc(Cl)cn2)c(C)n1 (stereo not shown) [Example 158] | 0.18 µM | 27 nM | – | –
COCc1cccc(NC(=O)[C@@H]2C[C@@]2(COc2cnc(C)nc2C)c2ccccc2)c1 [Example 42] | – | – | 0.374 µM | 12 nM
Cc1ncc(OC[C@@]2(c3ccccc3)C[C@H]2C(=O)Nc2cccc(F)c2)c(C)n1 [Example 79] | – | – | 0.09 µM | 26 nM
Cc1ncc(OC[C@@]2(c3cc(F)cc(F)c3)C[C@H]2C(=O)Nc2ccc(F)c(F)c2)c(C)n1 [Example 134, (1R,2S)-N-(3,4-difluorophenyl)-2-(3,5-difluorophenyl)-2-{[(2,4-dimethylpyrimidin-5-yl)oxy]methyl}cyclopropanecarboxamide] | < 0.002 µM | 4 nM | – | –
Cc1ncc(OC[C@@]2(c3ccccc3)C[C@H]2C(=O)Nc2cccc(CCO)c2)c(C)n1 [Example 40] | 0.172 µM | 9 nM | – | –

Structure (SMILES) | IC50 (OX1; [1]) | IC50 (OX2; read-out: OX2 (IC50)) | IC50 (OX1) | IC50 (OX2; OX2 (IC50) nM)
Cc1ncc(OCC2(c3cccc(F)c3)CC2C(=O)Nc2cccnc2)c(C)n1 (stereo not shown) [Example 99] | – | – | 0.644 µM | 58 nM
Cc1ncc(OC[C@@]2(c3ccccc3)C[C@H]2C(=O)Nc2cnc(Br)c(C)c2)c(C)n1 [Example 58] | 1.93 µM | 89 nM | – | –
Cc1ncc(OC[C@@]2(c3ccccc3)C[C@H]2C(=O)Nc2cccc(C#N)c2)c(C)n1 [Example 80] | – | – | 0.054 µM | 16 nM
CC(=O)c1cccc(NC(=O)[C@@H]2C[C@@]2(COc2cnc(C)nc2C)c2ccccc2)c1 [Example 37] | – | – | 0.041 µM | 8 nM
Cc1cccc(NC(=O)[C@@H]2C[C@@]2(COc2cnc(C)nc2C)c2ccccc2)n1 [Example 70] | – | – | 0.704 µM | 41 nM
Cc1ncc(OC[C@@]2(c3cccc(F)c3)C[C@H]2C(=O)Nc2ccc(Br)cn2)c(C)n1 [Example 279] | – | – | 0.024 µM | 3.2 nM
Cc1ncc(N(C)C[C@@]2(c3cccc(F)c3)C[C@H]2C(=O)Nc2cc(C)c(Cl)cn2)c(C)n1 [Example 295, (1R,2S)-N-(5-chloro-4-methylpyridin-2-yl)-2-[N-(2,4-dimethylpyrimidin-5-yl)methylaminomethyl]-2-(3-fluorophenyl)cyclopropanecarboxamide] | 0.005 µM | 6 nM | – | –
Cc1nc(C)[n+]([O-])cc1OC[C@@]1(c2ccccc2)C[C@H]1C(=O)Nc1ccc(F)nc1 [Example 81, (1R,2S)-2-[(2,4-dimethyl-1-oxopyrimidin-5-yl)oxymethyl]-N-(6-fluoropyridin-3-yl)-2-phenylcyclopropanecarboxamide] | 2.59 µM | 63 nM | – | –
COc1cc(NC(=O)[C@@H]2C[C@@]2(COc2cnc(C)nc2C)c2ccccc2)ccn1 [Example 72] | 0.202 µM | 31 nM | – | –
Cc1ncc(OC[C@@]2(c3ccccc3)C[C@H]2C(=O)Nc2ccc(C(F)(F)F)cn2)c(C)n1 [Example 5] | 0.145 µM | 38 nM | – | –
Cc1ncc(OC[C@@]2(c3ccccc3)C[C@H]2C(=O)Nc2cccc(-c3nnc[nH]3)c2)c(C)n1 [Example 38] | 0.518 µM | 29 nM | – | –
Cc1cc(NC(=O)[C@@H]2C[C@@]2(COc2cnc(C)nc2C)c2ccccc2)ccn1 [Example 28] | 1.7 µM | 101 nM | – | –
COCc1nc(C)ncc1OC[C@@]1(c2cccc(F)c2)C[C@H]1C(=O)Nc1ccc(F)cc1 [Example 192, (1R,2S)-2-(3-fluorophenyl)-N-(4-fluorophenyl)-2-{[(4-methoxymethyl-2-methylpyrimidin-5-yl)oxy]methyl}cyclopropanecarboxamide] | 0.012 µM | 5 nM | – | –
Cc1ncc(OCC2(c3ccccc3F)CC2C(=O)Nc2cccnc2)c(C)n1 (stereo not shown) [Example 276] | – | – | 3.21 µM | 76 nM
COCc1cc(NC(=O)[C@@H]2C[C@@]2(COc2cnc(C)nc2C)c2cccc(F)c2)ncc1F [Example 86, (1R,2S)-2-{[(2,4-dimethylpyrimidin-5-yl)oxy]methyl}-N-(5-fluoro-4-methoxymethylpyridin-2-yl)-2-(3-fluorophenyl)cyclopropanecarboxamide] | – | – | 0.0063 µM | 6.1 nM
Cc1ncc(OC[C@@]2(c3cc(F)cc(F)c3)C[C@H]2C(=O)Nc2ccc(Cl)cn2)c(C)n1 [Example 132, (1R,2S)-N-(5-chloropyridin-2-yl)-2-(3,5-difluorophenyl)-2-{[(2,4-dimethylpyrimidin-5-yl)oxy]methyl}cyclopropanecarboxamide] | – | – | 0.018 µM | 4 nM
COc1ccc(C2(COc3cnc(C)nc3C)CC2C(=O)Nc2ccc(Cl)cn2)cc1 (stereo not shown) [Example 182] | 0.099 µM | 21 nM | – | –
Cc1ncc(OC[C@@]2(c3cc(F)cc(F)c3)C[C@H]2C(=O)Nc2ccccn2)c(C)n1 [Example 131, (1R,2S)-2-(3,5-difluorophenyl)-2-{[(2,4-dimethylpyrimidin-5-yl)oxy]methyl}-N-(pyridin-2-yl)cyclopropanecarboxamide] | – | – | 0.089 µM | 5 nM
COc1cccc(C2(COc3cnc(C)nc3C)CC2C(=O)Nc2ccc(Cl)cn2)c1 (stereo not shown) [Example 185] | – | – | 0.024 µM | 7 nM
